Values after ≈ are worked out from the molar mass of the structure shown. Where two headings read alike, the source gives them in different places.
Key:
Assay type in all cases: cell-based
E. coli 901C = test: microbe, parasite or virus in culture; conditions: Escherichia coli, read-out: MIC E. coli 901C
[1] = system: P. aeruginosa (ΔmexAB-oprM); test: Broth microdilution MIC in CAMHB
A. baumannii ATCC 19606 = test: microbe, parasite or virus in culture; conditions: Acinetobacter baumannii, ATCC19606, read-out: MIC, A. baumannii ATCC 19606
K. pneumoniae UMM = test: microbe, parasite or virus in culture; conditions: Klebsiella pneumoniae, read-out: MIC K. pneumoniae UMM
E. coli D22 = test: microbe, parasite or virus in culture; conditions: Escherichia coli, D22, read-out: MIC E. coli D22
K. pneumoniae SI-117 = test: microbe, parasite or virus in culture; conditions: Klebsiella pneumoniae, SI117, read-out: MIC K. pneumoniae SI-117
E. coli ATCC 25922 = test: microbe, parasite or virus in culture; conditions: Escherichia coli, ATCC25922, read-out: MIC E. coli 25922
K. pneumoniae 848844 = test: microbe, parasite or virus in culture; conditions: Klebsiella pneumoniae, 848844, read-out: MIC K. pneumoniae 848844
P. aeruginosa ATCC 35151 = test: microbe, parasite or virus in culture; conditions: Pseudomonas aeruginosa, ATCC35151, read-out: MIC P. aeruginosa ATCC 35151
A. baumannii CDC-0083 = test: microbe, parasite or virus in culture; conditions: Acinetobacter baumannii, CDC0083, read-out: MIC, A. baumannii CDC-0083
E. coli AG100 = test: microbe, parasite or virus in culture; conditions: Escherichia coli, AG100, read-out: MIC E. coli AG100
[2] = Pseudomonas aeruginosa; read-out: MIC P. aeruginosa ΔmexAB-oprM

SMILES: O=C(O)c1c(F)ccc2c1OB(O)[C@@H](NC(=O)[C@H](NC(=O)N1CCN(Cc3ccc(O)c(O)c3Cl)C(=O)C1=O)c1ccc(P(=O)(O)O)cc1)C2 (single isomer, unassigned) [Example 160]
- MIC (E. coli 901C): < 1 µg/mL
- MIC [1, 2]: < 1 µg/mL
- MIC (A. baumannii ATCC 19606): < 1 µg/mL
- MIC (K. pneumoniae UMM): 2 to 4 µg/mL (≈ 2.72 to 5.44 µM)
- MIC (E. coli D22): 2 to 4 µg/mL (≈ 2.72 to 5.44 µM)
- MIC (K. pneumoniae SI-117): 8 to 16 µg/mL (≈ 10.9 to 21.8 µM)
- MIC (E. coli ATCC 25922): 2 to 4 µg/mL (≈ 2.72 to 5.44 µM)
- MIC (K. pneumoniae 848844): 32 to 64 µg/mL (≈ 43.6 to 87.1 µM)
- MIC (P. aeruginosa ATCC 35151): < 1 µg/mL
- MIC (A. baumannii CDC-0083): < 1 µg/mL
- MIC (E. coli AG100): < 1 µg/mL

SMILES: O=C(O)c1cccc2c1OB(O)[C@@H](NC(=O)[C@H](NC(=O)N1CCN(Cc3cc(F)c(O)c(O)c3Cl)C(=O)C1=O)c1ccc(P(=O)(O)O)cc1)C2 [Example 504, (R)-3-((R)-2-(4-(2-chloro-5-fluoro-3,4-dihydroxybenzyl)-2,3-dioxopiperazine-1-carboxamido)-2-(4-phosphonophenyl)acetamido)-2-hydroxy-3,4-dihydro-2H-benzo[e][1,2]oxaborinine-8-carboxylic acid]
- MIC (E. coli 901C): < 1 µg/mL
- MIC ([1]; Pseudomonas aeruginosa, read-out: MIC P. aeruginosa ΔmexAB-oprM): < 1 µg/mL
- MIC (A. baumannii ATCC 19606): < 1 µg/mL
- MIC (K. pneumoniae UMM): 2 to 4 µg/mL (≈ 2.72 to 5.44 µM)
- MIC (E. coli D22): 2 to 4 µg/mL (≈ 2.72 to 5.44 µM)
- MIC (K. pneumoniae SI-117): 2 to 4 µg/mL (≈ 2.72 to 5.44 µM)
- MIC (E. coli ATCC 25922): < 1 µg/mL
- MIC (K. pneumoniae 848844): 2 to 4 µg/mL (≈ 2.72 to 5.44 µM)
- MIC (P. aeruginosa ATCC 35151): < 1 µg/mL
- MIC (E. coli AG100): < 1 µg/mL

SMILES: O=C(O)c1c(F)ccc2c1OB(O)[C@@H](NC(=O)C(NC(=O)N1CCN(S(=O)(=O)c3ccc(O)c(O)c3Cl)C1=O)c1ccc(P(=O)(O)O)cc1)C2 (stereo partly drawn) [Example 505, (3R)-3-(2-(3-((2-chloro-3,4-dihydroxyphenyl)sulfonyl)-2-oxoimidazolidine-1-carboxamido)-2-(4-phosphonophenyl)acetamido)-7-fluoro-2-hydroxy-3,4-dihydro-2H-benzo[e][1,2]oxaborinine-8-carboxylic acid]
- MIC (E. coli 901C): < 1 µg/mL
- MIC [1, 2]: < 1 µg/mL
- MIC (A. baumannii ATCC 19606): < 1 µg/mL
- MIC (K. pneumoniae UMM): < 1 µg/mL
- MIC (E. coli D22): < 1 µg/mL
- MIC (K. pneumoniae SI-117): < 1 µg/mL
- MIC (E. coli ATCC 25922): < 1 µg/mL
- MIC (K. pneumoniae 848844): < 1 µg/mL
- MIC (P. aeruginosa ATCC 35151): < 1 µg/mL
- MIC (E. coli AG100): < 1 µg/mL

SMILES: O=C(O)c1c(F)ccc2c1OB(O)[C@@H](NC(=O)[C@H](NC(=O)N1CCN(S(=O)(=O)c3ccc(O)c(O)c3Cl)C1=O)c1ccc(P(=O)(O)O)cc1)C2 [Example 506, (R)-3-((R)-2-(3-((2-chloro-3,4-dihydroxyphenyl)sulfonyl)-2-oxoimidazolidine-1-carboxamido)-2-(4-phosphonophenyl)acetamido)-7-fluoro-2-hydroxy-3,4-dihydro-2H-benzo[e][1,2]oxaborinine-8-carboxylic acid]
- MIC (E. coli 901C): < 1 µg/mL
- MIC [1, 2]: < 1 µg/mL
- MIC (A. baumannii ATCC 19606): < 1 µg/mL
- MIC (K. pneumoniae UMM): < 1 µg/mL
- MIC (E. coli D22): < 1 µg/mL
- MIC (K. pneumoniae SI-117): < 1 µg/mL
- MIC (E. coli ATCC 25922): < 1 µg/mL
- MIC (K. pneumoniae 848844): 2 to 4 µg/mL (≈ 2.64 to 5.29 µM)
- MIC (P. aeruginosa ATCC 35151): < 1 µg/mL
- MIC (E. coli AG100): < 1 µg/mL

SMILES: O=C(O)c1cccc2c1OB(O)[C@@H](NC(=O)[C@H](NC(=O)N1CCN(S(=O)(=O)c3ccc(O)c(O)c3Cl)C1=O)c1ccc(P(=O)(O)O)cc1)C2 [Example 509, (R)-3-((R)-2-(3-((2-chloro-3,4-dihydroxyphenyl)sulfonyl)-2-oxoimidazolidine-1-carboxamido)-2-(4-phosphonophenyl)acetamido)-2-hydroxy-3,4-dihydro-2H-benzo[e][1,2]oxaborinine-8-carboxylic acid]
- MIC (E. coli 901C): < 1 µg/mL
- MIC [1, 2]: < 1 µg/mL
- MIC (A. baumannii ATCC 19606): < 1 µg/mL
- MIC (K. pneumoniae UMM): < 1 µg/mL
- MIC (E. coli D22): < 1 µg/mL
- MIC (K. pneumoniae SI-117): < 1 µg/mL
- MIC (E. coli ATCC 25922): < 1 µg/mL
- MIC (K. pneumoniae 848844): < 1 µg/mL
- MIC (P. aeruginosa ATCC 35151): < 1 µg/mL
- MIC (E. coli AG100): < 1 µg/mL
